Data set [1] has as its target T1, falcipain-2 (FP-2) (Plasmodium falciparum, UniProt Q8I6U4).
T1 construct: made in house
T1 sequence (Q8I6U4 244-484): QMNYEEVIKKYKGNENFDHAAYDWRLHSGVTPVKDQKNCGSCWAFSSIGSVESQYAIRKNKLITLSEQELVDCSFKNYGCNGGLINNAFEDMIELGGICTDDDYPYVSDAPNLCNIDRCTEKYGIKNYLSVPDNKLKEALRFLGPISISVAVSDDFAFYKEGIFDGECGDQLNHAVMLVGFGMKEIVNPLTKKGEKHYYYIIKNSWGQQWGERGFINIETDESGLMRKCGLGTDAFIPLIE
Nature of the data set: Enzyme inhibition assay, recombinant FP-2, substrate Z-Leu-Arg-AMC, fluorescence. To be noted: for Inhibition rate at 10 μM (%): 10 μM compound; for Inhibition rate at 10 μM (%) / inhibition at 10 µM: FP-2 30 nM, pH 5.5, 30 min preincubation. The class given is biochemical. The procedure: (§1) For the primary assay, the percent inhibitions of the compounds were measured at 10 μM. […] It is clear that the inhibitory activity of compound 2k was ~3 times higher than that of the lead compound 1, proving the validity of our chemical modifications. The anti-malarial potential of compound 1 in mice was investigated with Plasmodium berghei ANKA using a standard 4-day suppression test.
The purification and refolding of recombinant protein FP-2 was performed as described by Shenai et al. IC50 values against recombinant FP-2 were determined as described previously. FP-2 (30nM) was incubated for 30 min at room temperature in 100 mM sodium acetate, pH 5.5, 10 mM DTT, with different concentrations of tested inhibitors. Inhibitor solutions were prepared from stock in DMSO (maximum concentration of DMSO in the assay was 1%). After 30 min incubation, the substrate Z-Leu-Arg-AMC (benzoxycarbonyl-Leu-Arg-7-amino-4-methylcoumarin, Bachem AG) in the same buffer was added to a final concentration of 25 μM. The increase in fluorescence (excitation at 355 nm and emission at 460 nm) was monitored for 30 min at room temperature with an automated microtiter plate spectrofluorimeter (Molecular Devices, Flex Station). Half-maximal inhibitory concentration (IC50) was determined from plots of percent activity over compound concentration using GraphPad Prism software.

Data set [2] has as its target T1, falcipain-2 (FP-2). Nature of the data set: Surface plasmon resonance-based FP-2/ligand binding assay (Biacore 3000, CM5 chip). To be noted: SPR, immobilized FP-2, steady state affinity fitting, 25°C, HBS-EP pH 7.4. The source says: Targeting the crystal structure of FP-2 (PDB entry 2GHU), a total of 80,000 compounds were subsequently docked and ranked according to the Glide and GAsDock software. Finally, 81 compounds were purchased and submitted to biological evaluations against FP-2. Because enzymatic assays are time-consuming, surface plasmon resonance (SPR) measurements were used for the primary screening to determine the binding affinity of these 81 candidate molecules to FP-2. […] Among the 81 compounds, the biosensor RU of compound 1 was concentration-dependent. […] Thus, compound 1 could be designated as a binder (or hit) of FP-2.
The purification and refolding of recombinant protein FP-2 was performed as described by Shenai et al. The binding affinity of compound 1 to FP-2 in vitro was determined based on surface plasmon resonance (SPR) technology. The measurement was performed using the dual flow cell Biacore 3000 instrument (Biacore AB, Uppsala, Sweden). Immobilization of FP-2 to the hydrophilic carboxymethylated dextran matrix of the sensor chip CM5 (Biacore) was carried out by the standard primary amine coupling reaction wizard. […] The equilibrium constants (KD values) evaluating the protein–ligand binding affinities were determined by the steady state affinity fitting analysis of the Biacore data.

The subject of the next data set is Plasmodium berghei ANKA. Nature of the data set: Standard 4-day suppression test in mice. The class given is in vivo. To be noted: 9 mg/kg body weight intragastric daily for 4 days following infection, unpublished data. The procedure: as §1
Setting [3] is: pH 5.5, read-out: Inhibition rate at 10 μM (%), 10 μM compound.
The mark [4] stands for this setting: pH 5.5, 10 μM compound, read-out: Inhibition rate at 10 μM (%).

Where two headings read alike, the source gives them in different places.

Regarding `O=C(N[C@H](Cc1c[nH]c2ccccc12)C(=O)NCc1ccccc1)Oc1ccccc1` [Compound 1, (R)-2-Phenoxycarboxamido-3-(1H-indol-3-yl)-N-benzylpropanamide], on falcipain-2 (FP-2) [1], the IC50 was determined as 29.7 µM and the “Inhibition rate at 10 μM (%)” value is 29.4%. The inhibition at 10 µM at falcipain-2 (FP-2) [1] (setting [3]) is more than 20%. In addition, the affinity at falcipain-2 (FP-2) [2], expressed as Kd, was 5.88 µM. The “reduction in parasitemia relative to normal control” value in the data set with Plasmodium berghei ANKA is on record as less than 50%.

Take `O=C(N[C@@H](Cc1c[nH]c2ccccc12)C(=O)NCc1ccccc1)Oc1ccccc1` [Compound 2a, (S)-2-Phenoxycarboxamido-3-(1H-indol-3-yl)-N-benzylpropanamide]: the inhibition at 10 µM on falcipain-2 (FP-2) [1] (setting [3]) was 14.3%.

For `O=C(Cc1ccccc1)N[C@H](Cc1c[nH]c2ccccc12)C(=O)NCc1ccccc1` [Compound 2b, (R)-2-(2-Phenylacetamido)-3-(1H-indol-3-yl)-N-benzylpropanamide], the “Inhibition rate at 10 μM (%)” value on falcipain-2 (FP-2) [1] came to 25.7%. The inhibition at 10 µM on falcipain-2 (FP-2) [1] (setting [4]) was more than 20%. Besides, the IC50 on falcipain-2 (FP-2) [1] (recombinant FP-2 30 nM, Z-Leu-Arg-AMC 25 μM, pH 5.5, read-out: IC50) came out at 39.4 µM.

The molecule `O=C(NCc1ccccc1)[C@@H](Cc1c[nH]c2ccccc12)NCc1ccccc1` [Compound 2c, (R)-2-Benzylamino-3-(1H-indol-3-yl)-N-benzyl-propanamide] returned a melting point of 38 to 40 °C. For the same molecule, the inhibition at 10 µM on falcipain-2 (FP-2) [1] (setting [4]) stood at 13%.

For `O=C(N[C@H](Cc1c[nH]c2ccccc12)C(=O)Nc1ccccc1)Oc1ccccc1` [Compound 2d, (R)-2-Phenoxycarboxamido-3-(1H-indol-3-yl)-N-phenylpropanamide], the melting point fell in the range of 195 to 197 °C. The inhibition at 10 µM on falcipain-2 (FP-2) [1] (setting [3]) is 11.8%.

`O=C(N[C@H](Cc1c[nH]c2ccccc12)C(=O)Nc1ccc(F)cc1)Oc1ccccc1` [Compound 2e, (R)-2-Phenoxycarboxamido-3-(1H-indol-3-yl)-N-(4-fluorophenyl)-propanamide] gave a melting point of 185 to 189 °C. Moreover, the inhibition at 10 µM at falcipain-2 (FP-2) [1] (setting [3]) is 3.1%.

`CCOc1ccc(NC(=O)[C@@H](Cc2c[nH]c3ccccc23)NC(=O)Oc2ccccc2)cc1` [Compound 2f, (R)-2-Phenoxycarboxamido-3-(1H-indol-3-yl)-N-(4-ethoxyphenyl)-propanamide] returned a melting point of 180 to 184 °C. In addition, the inhibition at 10 µM at falcipain-2 (FP-2) [1] (setting [3]) is 13.6%.

Turning to `O=C(N[C@H](Cc1c[nH]c2ccccc12)C(=O)Nc1ccc2c(c1)OCO2)Oc1ccccc1` [Compound 2g, (R)-2-Phenoxycarboxamido-3-(1H-indol-3-yl)-N-(benzo[1,3]dioxol-5-yl)-propanamide], the melting point is 186 to 188 °C. On falcipain-2 (FP-2) [1] (setting [3]), the inhibition at 10 µM amounted to 3.1%.

Regarding `O=C(N[C@H](Cc1c[nH]c2ccccc12)C(=O)NCc1cccs1)Oc1ccccc1` [Compound 2i, (R)-2-Phenoxycarboxamido-3-(1H-indol-3-yl)-N-[(thiophen-2-yl)methyl]-propanamide], the melting point is 184 to 186 °C. The inhibition at 10 µM on falcipain-2 (FP-2) [1] (setting [3]) was 2.2%.

In turn, `C#CCNC(=O)[C@@H](Cc1c[nH]c2ccccc12)NC(=O)Oc1ccccc1` [Compound 2j, (R)-2-Phenoxycarboxamido-3-(1H-indol-3-yl)-N-(prop-2-yn-1-yl)-propanamide] came in with a melting point of 173 to 177 °C. The inhibition at 10 µM at falcipain-2 (FP-2) [1] (setting [3]) was determined as 6.6%.

For `O=C(N[C@H](Cc1c[nH]c2ccccc12)C(=O)NCc1ccc([N+](=O)[O-])cc1)Oc1ccccc1` [Compound 2k, (R)-2-Phenoxycarboxamido-3-(1H-indol-3-yl)-N-[(4-nitrophenyl)methyl]-propanamide], the half-maximal inhibitory concentration (IC50) on falcipain-2 (FP-2) [1] came out at 10 µM. For the same molecule, the “FP-2 inhibitory activity relative to lead compound 1 (fold better)” value at falcipain-2 (FP-2) [1] (ratio of inhibitory activity versus compound 1) is given as ~ 3.

As for `COC(=O)c1ccc(CNC(=O)[C@@H](Cc2c[nH]c3ccccc23)NC(=O)Oc2ccccc2)cc1` [Compound 2l, (R)-2-Phenoxycarboxamido-3-(1H-indol-3-yl)-N-(4-methoxycarbonyl-phenylmethyl)-propanamide], at falcipain-2 (FP-2) [1], the IC50 worked out at 13.3 µM and the “Inhibition rate at 10 μM (%)” value is reported as 32.9%. Besides, the inhibition at 10 µM on falcipain-2 (FP-2) [1] (setting [3]) was more than 20%.

In general, IC50 refers to the concentration that gives 50% inhibition. Usually inhibition stands for the percentage by which the read-out fell short of the control. What is called Kd is the free concentration of one partner at which half of the binding sites on the other are occupied at equilibrium, for simple one-to-one binding. A low value points to tighter binding. One may read the melting point as the temperature of the solid-liquid transition.

The values above are taken from PMC6253880, “2-Amido-3-(1H-Indol-3-yl)-N-Substitued-Propanamides as a New Class of Falcipain-2 Inhibitors. 1. Design, Synthesis, Biological Evaluation and Binding Model Studies” (Molecules, 2009).
